Assay results as given in BindingDB's records for doi:10.1021/jm0600390 (Mcgill University Health Center/Royal Victoria Hospital, 2006).

Assay: Inhibition of serum-stimulated proliferation of mouse ERBB2 transfected NIH3T3 cell line after 24 hrs

Row | Structure (SMILES) | IC50
1 | CNc1ccc2ncnc(Nc3cccc(C)c3)c2c1 [4-[(3-methylphenyl)amino]-6-(methylamino)quinazoline] | 2070 nM
2 | Cc1cccc(Nc2ncnc3ccc(NC(=O)NCCCl)cc23)c1 [1-(2-chloroethyl)-3-{[4-(3-methylphenyl)amino]quinazolin-6-yl}urea] | 2100 nM
3 | CN(C(=O)N(CCCl)N=O)c1ccc2ncnc(Nc3cccc(Br)c3)c2c1 [1-(2-chloroethyl)-1-nitroso-3-methyl-3-{[4-(3-bromophenyl)amino]quinazolin-6-yl}urea] | 3060 nM
4 | CN(C(=O)N(CCCl)N=O)c1ccc2ncnc(Nc3cccc(Cl)c3)c2c1 [1-(2-chloroethyl)-1-nitroso-3-methyl-3-{[4-(3-chloro-phenyl)amino]quinazolin-6-yl}urea] | 680 nM
5 | O=NN(CCCl)C(=O)Nc1ccc2ncnc(Nc3cccc(Cl)c3)c2c1 [1-(2-Chloroethyl)-1-nitroso-3-{[4-(3-chlorophenyl)amino]quinazolin-6-yl}urea] | 5400 nM
6 | CNc1ccc2ncnc(Nc3cccc(Br)c3)c2c1 [4-N-(3-bromophenyl)-6-N-methylquinazoline-4,6-diamine] | 170 nM
7 | CNc1ccc2ncnc(Nc3cccc(Cl)c3)c2c1 [4-[(3-chlorophenyl)amino]-6-(methylamino)quinazoline] | 890 nM
8 | Cc1cccc(Nc2ncnc3ccc(NC(=O)N(CCCl)N=O)cc23)c1 [1-(2-Chloroethyl)-1-nitroso-3-{[4-(3-methylphenyl)amino]quinazolin-6-yl}urea] | 12200 nM
9 | Cc1cccc(Nc2ncnc3ccc(N(C)C(=O)N(CCCl)N=O)cc23)c1 [1-(2-chloroethyl)-1-nitroso-3-methyl-3-{[4-(3-methylphenyl)amino]quinazolin-6-yl}urea] | 6880 nM
10 | Nc1ccc2ncnc(Nc3cccc(Cl)c3)c2c1 | 3290 nM
11 | Nc1ccc2ncnc(Nc3cccc(Br)c3)c2c1 | 670 nM
12 | Cc1cccc(Nc2ncnc3ccc(N)cc23)c1 [N4-(3-methylphenyl)-4,6-quinazolinediamine] | 6390 nM
13 | O=NN(CCCl)C(=O)Nc1ccc2ncnc(Nc3cccc(Br)c3)c2c1 [1-(2-chloroethyl)-1-nitroso-3-{[4-(3-bromophenyl)amino]quinazolin-6-yl}urea] | 1150 nM
14 | O=C(NCCCl)Nc1ccc2ncnc(Nc3cccc(Br)c3)c2c1 [1-(2-chloroethyl)-3-{[4-(3-bromophenyl)amino]quinazolin-6-yl}urea] | 1770 nM
15 | O=C(NCCCl)Nc1ccc2ncnc(Nc3cccc(Cl)c3)c2c1 [1-(2-chloroethyl)-3-{[4-(3-chlorophenyl)amino]quinazolin-6-yl}urea] | 1350 nM
